Assay: Mouse urine: fluorescence of extracted urine after injection
Format: in vivo
Conditions: mice, urine extracted with acetonitrile:methanol mix, imaged on Odyssey CLx imager
Description: The urine is extracted with an acetonitrile:methanol mix and imaged on an Odyssey CLx imager (LI-COR Biosciences).

With `CC1(C)C(/C=C/C=C/C=C/C=C2\N(CCCCS(=O)(=O)O)c3ccc4ccccc4c3C2(C)C)=[N+](CCCCS(=O)(=O)[O-])c2ccc3ccccc3c21` [ICG, indocyanine green] the “fluorescent signal in urine” value was “No fluorescent signal”.

— patent US10758631B2, “Solid cyanine dyes” (LI-COR, Inc., priority 2017, dated 2020)
